Where two headings read alike, the source gives them in different places.
Key:
[1] = molecular target: T1, glucosylceramide synthase (Homo sapiens, UniProt Q16739); assay: microsomal assay measuring conversion of ceramide to glucosylceramide by HPLC (GCS IC50); assay type: biochemical; settings: concentration causing 50% inhibition of glucosylceramide synthase activity
T1 construct: Microsomes were isolated from A375 human melanoma cells; endogenous in cells; host or cells: A375 human melanoma cells (microsomal fraction, 100,000 g pellet)
T1 sequence (Q16739 1-394): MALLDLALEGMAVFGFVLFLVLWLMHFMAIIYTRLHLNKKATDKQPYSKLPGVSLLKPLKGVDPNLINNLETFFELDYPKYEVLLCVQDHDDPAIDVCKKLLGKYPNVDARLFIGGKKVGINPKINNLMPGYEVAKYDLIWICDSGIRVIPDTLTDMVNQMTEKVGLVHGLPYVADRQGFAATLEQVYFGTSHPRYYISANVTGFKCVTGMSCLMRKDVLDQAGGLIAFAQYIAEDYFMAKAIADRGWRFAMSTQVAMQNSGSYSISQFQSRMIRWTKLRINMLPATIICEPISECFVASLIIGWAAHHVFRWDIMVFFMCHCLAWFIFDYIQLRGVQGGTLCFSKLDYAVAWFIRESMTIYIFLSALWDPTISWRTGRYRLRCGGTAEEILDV
How it was run: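 Microsomal preparation assayed for glucosylceramide synthase by direct HPLC measurement of ceramide conversion to glucosylceramide. GCS IC50 is the compound concentration giving 50% inhibition of enzyme activity.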

[2] = system: GM3 expression on the cell surface, B16 mouse melanoma cells; assay: cell based phenotypic assay, cell surface GM3 by antibody mediated immunofluorescence, B16 (GM3 B16 IC50); settings: Mus musculus, 50% inhibition of GM3 expression on the cell surface
How it was run: (§1)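 Both lines undergo the phenotypic GM3 assay, and viability is recorded from that same cell-based run.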

[3] = system: GM3 expression on the cell surface, C32 human melanoma cells; assay: cell based phenotypic assay, cell surface GM3 by antibody mediated immunofluorescence, C32 (GM3 C32 IC50); settings: Homo sapiens, 50% inhibition of GM3 expression on the cell surface
How it was run: as §1

[4] = system: B16 mouse melanoma cells; assay: cell viability in the B16 cell-based assay (Viability, B16 IC50); settings: Mus musculus
How it was run: (§2)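 Two melanoma lines, mouse B16 and human C32, were treated and surface GM3 quantified by antibody immunofluorescence for IC50. A parallel viability readout gives the concentration killing 50% of cells, with values over 10 indicating no cell death.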

[5] = system: C32 human melanoma cells; assay: cell viability in the C32 cell-based assay (Viability, C32 IC50); settings: Homo sapiens, concentration causing 50% cell death, values greater than 10 represent a lack of cell death
How it was run: as §2

[6] = B16 mouse melanoma cells, read-out: GM3 B16 IC50
[7] = C32 human melanoma cells, read-out: GM3 C32 IC50
[8] = B16, B16 cells, concentration causing 50% cell death, values greater than 10 represent a lack of cell death, read-out: Viability, B16 IC50
[9] = C32, C32 cells, read-out: Viability, C32 IC50

Row | IC50 [1] | IC50 [2, 6] | IC50 [3, 7] | Structure (SMILES) | IC50 [4, 8] | IC50 [5, 9] | IC50 ([2]; read-out: GM3 B16 IC50, B16 mouse melanoma cells) | IC50 ([3]; read-out: GM3 C32 IC50, C32 human melanoma cells) | IC50 ([4]; B16, read-out: Viability, B16 IC50) | IC50 ([5]; C32, read-out: Viability, C32 IC50, C32 cells)
1 | 14.5 nM | 343 nM | 2.83 nM | CC1(NC(=O)C2(F)CCN(c3ccc(Oc4ccc(F)cc4)nn3)CC2)CCN2CCC1CC2 (centres unmarked) [Example 134, 4-Fluoro-1-(6-(4-fluorophenoxy)pyridazin-3-yl)-N-(4-methyl-1-azabicyclo[3.2.2]nonan-4-yl)piperidine-4-carboxamide] | ≥ 10000 nM | 1000 nM | – | – | – | –
2 | 7.69 nM | 100 nM | 0.861 nM | CCC1CN(C(=O)NC2(C)CCN3CCC2CC3)CCN1c1nccc(-c2ccccc2)n1 (centres unmarked) [Example 142, 3-Ethyl-N-(4-methyl-1-azabicyclo[3.2.2]nonan-4-yl)-4-(4-phenylpyrimidin-2-yl)piperazine-1-carboxamide] | 5340 nM | 9210 nM | – | – | – | –
3 | 8.01 nM | 76.3 nM | 0.507 nM | CC1CN(C(=O)NC2(C)CCN3CCC2CC3)CCN1c1nccc(-c2ccc(F)cc2)n1 (centres unmarked) [Example 145, 4-(4-(4-Fluorophenyl)pyrimidin-2-yl)-3-methyl-N-(4-methyl-1-azabicyclo[3.2.2]nonan-4-yl)piperazine-1-carboxamide] | 6980 nM | 316 nM | – | – | – | –
4 | 17.4 nM | 390 nM | 8.59 nM | COCc1ccc(-c2nc(N3CCN(C(=O)NC4(C)CCN5CCC4CC5)CC3C(C)C)ncc2F)cc1 (centres unmarked) [Example 148, 4-(5-Fluoro-4-(4-(methoxymethyl)phenyl)pyrimidin-2-yl)-3-isopropyl-N-(4-methyl-1-azabicyclo[3.2.2]nonan-4-yl)piperazine-1-carboxamide] | 3460 nM | 1000 nM | – | – | – | –
5 | 23 nM | 195 nM | 1.06 nM | COCc1ccc(-c2ccnc(N3CCN(C(=O)NC4(C)CCN5CCC4CC5)CC3C(F)F)n2)cc1 (centres unmarked) [Example 150, 3-(Difluoromethyl)-4-(4-(4-(methoxymethyl)phenyl)pyrimidin-2-yl)-N-(4-methyl-1-azabicyclo[3.2.2]nonan-4-yl)piperazine-1-carboxamide] | 5440 nM | 1000 nM | – | – | – | –
6 | 2.88 nM | 76.3 nM | 0.439 nM | C[C@@H]1CN(C(=O)NC2(C)CCN3CCC2CC3)CCN1c1ncc(Oc2ccc(F)cc2)cn1 (stereo partly drawn) [Example 152, (3R)-4-(5-(4-Fluorophenoxy)pyrimidin-2-yl)-3-methyl-N-(4-methyl-1-azabicyclo[3.2.2]nonan-4-yl)piperazine-1-carboxamide] | 6770 nM | 316 nM | – | – | – | –
7 | 53.4 nM | 2640 nM | 11.7 nM | C#CC1CN(C(=O)NC2(C)CCN3CCC2CC3)CCN1c1nccc(-c2ccc(COC)cc2)n1 (centres unmarked) [Example 153, 3-Ethynyl-4-(4-(4-(methoxymethyl)phenyl)pyrimidin-2-yl)-N-(4-methyl-1-azabicyclo[3.2.2]nonan-4-yl)piperazine-1-carboxamide] | ≥ 10000 nM | 1000 nM | – | – | – | –
8 | 57 nM | 1930 nM | 16.5 nM | CC1CN(C(=O)OC2CCN3CCC2CC3)CCN1c1nccc(-c2ccccc2)n1 (centres unmarked) [Example 154, 1-Azabicyclo[3.2.2]nonan-4-yl 3-methyl-4-(4-phenylpyrimidin-2-yl)piperazine-1-carboxylate] | 2840 nM | 1000 nM | – | – | – | –

Continued, molecule first:

Row | Structure (SMILES) | IC50 [1] | IC50 [2, 6] | IC50 [3, 7] | IC50 [4, 8] | IC50 [5, 9] | IC50 ([2]; read-out: GM3 B16 IC50, B16 mouse melanoma cells) | IC50 ([3]; read-out: GM3 C32 IC50, C32 human melanoma cells) | IC50 ([4]; B16, read-out: Viability, B16 IC50) | IC50 ([5]; C32, read-out: Viability, C32 IC50, C32 cells)
9 | CC1(NC(=O)C2(F)CCN(c3nccc(COc4ccc(F)cc4)n3)CC2)CN2CCC1CC2 (centres unmarked) [Example 135, 4-Fluoro-1-(4-((4-fluorophenoxy)methyl)pyrimidin-2-yl)-N-(3-methylquinuclidin-3-yl)piperidine-4-carboxamide] | 1.38 nM | 31.7 nM | 0.132 nM | 8250 nM | 46.4 nM | – | – | – | –
10 | COCCOc1ccc(Cc2cnc(N3CCC(F)(C(=O)NC4(C)CN5CCC4CC5)CC3)nc2)cc1 (centres unmarked) [Example 136] | 7.9 nM | 24.9 nM | 0.716 nM | ≥ 10000 nM | 1000 nM | – | – | – | –
11 | CC1CN(C(=O)NC2(C)CCN3CCC2CC3)CCN1c1nccc(-c2ccccc2)n1 (centres unmarked) [Example 141, 3-Methyl-N-(4-methyl-1-azabicyclo[3.2.2]nonan-4-yl)-4-(4-phenylpyrimidin-2-yl)piperazine-1-carboxamide] | 5.96 nM | 209 nM | 0.888 nM | 4670 nM | 316 nM | – | – | – | –
12 | COCC1CN(C(=O)NC2(C)CCN3CCC2CC3)CCN1c1nccc(-c2ccccc2)n1 (centres unmarked) [Example 144, 3-(Methoxymethyl)-N-(4-methyl-1-azabicyclo[3.2.2]nonan-4-yl)-4-(4-phenylpyrimidin-2-yl)piperazine-1-carboxamide] | 67.3 nM | 529 nM | 6.33 nM | ≥ 10000 nM | 1000 nM | – | – | – | –
13 | COCc1ccc(-c2ccnc(N3CCN(C(=O)NC4(C)CCN5CCC4CC5)CC3C(F)(F)F)n2)cc1 (centres unmarked) [Example 149, 4-(4-(4-(Methoxymethyl)phenyl)pyrimidin-2-yl)-N-(4-methyl-1-azabicyclo[3.2.2]nonan-4-yl)-3-(trifluoromethyl)piperazine-1-carboxamide] | 10.9 nM | 279 nM | 1.5 nM | 4310 nM | 1000 nM | – | – | – | –
14 | COCc1ccc(-c2ncnc(N3CCN(C(=O)NC4(C)CCN5CCC4CC5)CC3C(C)C)n2)cc1 (centres unmarked) [Example 151, 3-Isopropyl-4-(4-(4-(methoxymethyl)phenyl)-1,3,5-triazin-2-yl)-N-(4-methyl-1-azabicyclo[3.2.2]nonan-4-yl)piperazine-1-carboxamide] | 324 nM | 1820 nM | 95.6 nM | 9840 nM | 1000 nM | – | – | – | –
15 | COCCOc1ccc(-c2ccc(C(C)(C)NC(=O)OC3CN4CCC3CC4)cc2)cc1 (centres unmarked) [Example 155, Quinuclidin-3-yl (2-(4′-(2-methoxyethoxy)-[1,1′-biphenyl]-4-yl)propan-2-yl)carbamate] | 3.48 nM | – | – | – | – | 38.6 nM | 0.657 nM | 1000 nM | 215 nM
16 | COCCOc1ccc(-c2ccc(C(C)(C)NC(=O)N[C@@]3(C)CN4CCC3CC4)cc2)cc1 [Example 157, (R)-1-(2-(4′-(2-Methoxyethoxy)-[1,1′-biphenyl]-4-yl)propan-2-yl)-3-(3-methylquinuclidin-3-yl)urea] | 228 nM | 538 nM | 42 nM | 3160 nM | 3160 nM | – | – | – | –
17 | COCCOc1ccc(-c2ccc(C(C)(C)NC(=O)N[C@]3(C)CN4CCC3CC4)cc2)cc1 [Example 158, (S)-1-(2-(4′-(2-Methoxyethoxy)-[1,1′-biphenyl]-4-yl)propan-2-yl)-3-(3-methylquinuclidin-3-yl)urea] | 2.85 nM | 7.62 nM | 0.529 nM | 631 nM | 631 nM | – | – | – | –
18 | CCC1(NC(=O)NC(C)(C)c2ccc(-c3ccc(OCCOC)cc3)cc2)CN2CCC1CC2 (centres unmarked) [Example 159, 1-(3-Ethylquinuclidin-3-yl)-3-(2-(4′-(2-methoxyethoxy)-[1,1′-biphenyl]-4-yl)propan-2-yl)urea] | 5.6 nM | 4.46 nM | 0.636 nM | 1000 nM | 1000 nM | – | – | – | –
19 | COCCOc1ccc(-c2ccc(C(C)(C)NC(=O)NC3(C)CCN4CCC3CC4)cc2)cc1 (centres unmarked) [Example 160, 1-(2-(4′-(2-Methoxyethoxy)-[1,1′-biphenyl]-4-yl)propan-2-yl)-3-(4-methyl-1-azabicyclo[3.2.2]nonan-4-yl)urea] | 3.91 nM | 1.9 nM | 0.544 nM | 1000 nM | 1000 nM | – | – | – | –

From patent US12060349B2, “Glucosylceramide synthase inhibitors” (Genzyme Corporation, priority 2012, dated 2024)
